What was measured:
Assay in all cases: In vivo activity, experimentally infected mice (ED50)
Streptococcus pyogenes = Streptococcus pyogenes infection; doses administered subcutaneously to mice 1 and 4 hours postinfection
Streptococcus pneumoniae = Streptococcus pneumoniae infection; doses administered subcutaneously to mice 1 and 4 hours postinfection
Staphylococcus aureus = Staphylococcus aureus infection; doses administered subcutaneously to mice 1 and 4 hours postinfection

Compound	ED50 (Streptococcus pyogenes) [mg/kg/2]	ED50 (Streptococcus pneumoniae) [mg/kg/2]	ED50 (Staphylococcus aureus) [mg/kg/2]
CCCCCCCCN(C)[C@H](CC(C)C)C(=O)N[C@H]1C(=O)N[C@@H](CC(N)=O)C(=O)N[C@H]2C(=O)N[C@H]3C(=O)N[C@H](C(=O)N[C@H](C(=O)O)c4cc(O)cc(O)c4-c4cc3ccc4O)[C@H](O[C@H]3C[C@](C)(N)[C@@H](O)[C@H](C)O3)c3ccc(cc3)Oc3cc2cc(c3O[C@@H]2O[C@H](CO)[C@@H](O)[C@H](O)[C@H]2O[C@H]2C[C@](C)(N)[C@@H](O)[C@H](C)O2)Oc2ccc(cc2Cl)[C@H]1O [Compound 2]	0.79	1.25	> 5.0
CCCCCN[C@@]1(C)C[C@H](O[C@H]2[C@H](Oc3c4cc5cc3Oc3ccc(cc3Cl)[C@@H](O)[C@@H](NC(=O)[C@@H](CC(C)C)NC)C(=O)N[C@@H](CC(N)=O)C(=O)N[C@H]5C(=O)N[C@H]3C(=O)N[C@H](C(=O)N[C@H](C(=O)O)c5cc(O)cc(O)c5-c5cc3ccc5O)[C@H](O[C@H]3C[C@](C)(N)[C@@H](O)[C@H](C)O3)c3ccc(cc3)O4)O[C@H](CO)[C@@H](O)[C@@H]2O)O[C@@H](C)[C@@H]1O [Compound 5]	0.17	0.1	0.92
CCCCCN[C@@]1(C)C[C@H](O[C@H]2[C@H](Oc3c4cc5cc3Oc3ccc(cc3Cl)[C@@H](O)[C@@H](NC(=O)[C@@H](CC(C)C)N(C)CCCCC)C(=O)N[C@@H](CC(N)=O)C(=O)N[C@H]5C(=O)N[C@H]3C(=O)N[C@H](C(=O)N[C@H](C(=O)O)c5cc(O)cc(O)c5-c5cc3ccc5O)[C@H](O[C@H]3C[C@](C)(NCCCCC)[C@@H](O)[C@H](C)O3)c3ccc(cc3)O4)O[C@H](CO)[C@@H](O)[C@@H]2O)O[C@@H](C)[C@@H]1O [Compound 8]	2.69	> 4.0	> 4.0
CCCCCCCCCCN[C@@]1(C)C[C@H](O[C@H]2[C@H](Oc3c4cc5cc3Oc3ccc(cc3Cl)[C@@H](O)[C@@H](NC(=O)[C@@H](CC(C)C)NC)C(=O)N[C@@H](CC(N)=O)C(=O)N[C@H]5C(=O)N[C@H]3C(=O)N[C@H](C(=O)N[C@H](C(=O)O)c5cc(O)cc(O)c5-c5cc3ccc5O)[C@H](O[C@H]3C[C@](C)(N)[C@@H](O)[C@H](C)O3)c3ccc(cc3)O4)O[C@H](CO)[C@@H](O)[C@@H]2O)O[C@@H](C)[C@@H]1O [Compound 9]	0.68	–	–
CN[C@H](CC(C)C)C(=O)N[C@H]1C(=O)N[C@@H](CC(N)=O)C(=O)N[C@H]2C(=O)N[C@H]3C(=O)N[C@H](C(=O)N[C@H](C(=O)O)c4cc(O)cc(O)c4-c4cc3ccc4O)[C@H](O[C@H]3C[C@](C)(N)[C@@H](O)[C@H](C)O3)c3ccc(cc3)Oc3cc2cc(c3O[C@@H]2O[C@H](CO)[C@@H](O)[C@H](O)[C@H]2O[C@H]2C[C@](C)(NCc3ccc(Cl)cc3)[C@@H](O)[C@H](C)O2)Oc2ccc(cc2Cl)[C@H]1O [Compound 20]	0.15	0.23	> 2.0
CN[C@H](CC(C)C)C(=O)N[C@H]1C(=O)N[C@@H](CC(N)=O)C(=O)N[C@H]2C(=O)N[C@H]3C(=O)N[C@H](C(=O)N[C@H](C(=O)O)c4cc(O)cc(O)c4-c4cc3ccc4O)[C@H](O[C@H]3C[C@](C)(NCCc4ccccc4)[C@@H](O)[C@H](C)O3)c3ccc(cc3)Oc3cc2cc(c3O[C@@H]2O[C@H](CO)[C@@H](O)[C@H](O)[C@H]2O[C@H]2C[C@](C)(N)[C@@H](O)[C@H](C)O2)Oc2ccc(cc2Cl)[C@H]1O [Compound 25]	0.50	0.76	> 1.0
CN[C@H](CC(C)C)C(=O)N[C@H]1C(=O)N[C@@H](CC(N)=O)C(=O)N[C@H]2C(=O)N[C@H]3C(=O)N[C@H](C(=O)N[C@H](C(=O)O)c4cc(O)cc(O)c4-c4cc3ccc4O)[C@H](O[C@H]3C[C@](C)(N)[C@@H](O)[C@H](C)O3)c3ccc(cc3)Oc3cc2cc(c3O[C@@H]2O[C@H](CO)[C@@H](O)[C@H](O)[C@H]2O[C@H]2C[C@](C)(NCC(c3ccccc3)c3ccccc3)[C@@H](O)[C@H](C)O2)Oc2ccc(cc2Cl)[C@H]1O [Compound 26]	0.48	0.47	> 3.0
CCCCCN[C@@]1(C)C[C@H](O[C@H]2[C@H](Oc3c4cc5cc3Oc3ccc(cc3Cl)[C@@H](O[C@H]3C[C@](C)(N)[C@@H](O)[C@H](C)O3)[C@@H]3NC(=O)[C@H](NC(=O)[C@@H]5NC(=O)[C@H](CC(N)=O)NC(=O)[C@H](NC(=O)[C@@H](CC(C)C)N(C)CCCCC)[C@H](O)c5ccc(c(Cl)c5)O4)c4ccc(O)c(c4)-c4c(O)cc(O)cc4[C@@H](C(=O)O)NC3=O)O[C@H](CO)[C@@H](O)[C@@H]2O)O[C@@H](C)[C@@H]1O [Compound 36]	0.38	0.29	1.0
CCCCCN[C@@]1(C)C[C@H](O[C@H]2[C@H](Oc3c4cc5cc3Oc3ccc(cc3Cl)[C@@H](O[C@H]3C[C@](C)(NCCCCC)[C@@H](O)[C@H](C)O3)[C@@H]3NC(=O)[C@H](NC(=O)[C@@H]5NC(=O)[C@H](CC(N)=O)NC(=O)[C@H](NC(=O)[C@@H](CC(C)C)N(C)CCCCC)[C@H](O)c5ccc(c(Cl)c5)O4)c4ccc(O)c(c4)-c4c(O)cc(O)cc4[C@@H](C(=O)O)NC3=O)O[C@H](CO)[C@@H](O)[C@@H]2O)O[C@@H](C)[C@@H]1O [Compound 37]	1.09	0.88	> 5.0
CCCCCCCCN(C)[C@H](CC(C)C)C(=O)N[C@H]1C(=O)N[C@@H](CC(N)=O)C(=O)N[C@H]2C(=O)N[C@H]3C(=O)N[C@H](C(=O)N[C@H](C(=O)O)c4cc(O)cc(O)c4-c4cc3ccc4O)[C@H](O[C@H]3C[C@](C)(N)[C@@H](O)[C@H](C)O3)c3ccc(c(Cl)c3)Oc3cc2cc(c3O[C@@H]2O[C@H](CO)[C@@H](O)[C@H](O)[C@H]2O[C@H]2C[C@](C)(N)[C@@H](O)[C@H](C)O2)Oc2ccc(cc2Cl)[C@H]1O [Compound 39]	0.18	0.34	1.22
CCCCCCCCN[C@@]1(C)C[C@H](O[C@H]2[C@H](Oc3c4cc5cc3Oc3ccc(cc3Cl)[C@@H](O[C@H]3C[C@](C)(NCCCCCCCC)[C@@H](O)[C@H](C)O3)[C@@H]3NC(=O)[C@H](NC(=O)[C@@H]5NC(=O)[C@H](CC(N)=O)NC(=O)[C@H](NC(=O)[C@@H](CC(C)C)NC)[C@H](O)c5ccc(c(Cl)c5)O4)c4ccc(O)c(c4)-c4c(O)cc(O)cc4[C@@H](C(=O)O)NC3=O)O[C@H](CO)[C@@H](O)[C@@H]2O)O[C@@H](C)[C@@H]1O [Compound 41]	0.18	0.32	1.22
CN[C@H](CC(C)C)C(=O)N[C@H]1C(=O)N[C@@H](CC(N)=O)C(=O)N[C@H]2C(=O)N[C@H]3C(=O)N[C@H](C(=O)N[C@H](C(=O)O)c4cc(O)cc(O)c4-c4cc3ccc4O)[C@H](O[C@H]3C[C@](C)(NCCc4ccccc4)[C@@H](O)[C@H](C)O3)c3ccc(c(Cl)c3)Oc3cc2cc(c3O[C@@H]2O[C@H](CO)[C@@H](O)[C@H](O)[C@H]2O[C@H]2C[C@](C)(N)[C@@H](O)[C@H](C)O2)Oc2ccc(cc2Cl)[C@H]1O [Compound 44]	0.125	0.2	0.3
CNC(CC(C)C)C(=O)NC1C(=O)NC(CC(N)=O)C(=O)NC2C(=O)NC3C(=O)NC(C(=O)NC(C(=O)O)c4cc(O)cc(O)c4-c4cc3ccc4O)C(OC3CC(C)(NCC(c4ccccc4)c4ccccc4)C(O)C(C)O3)c3ccc(c(Cl)c3)Oc3cc2cc(c3OC2OC(CO)C(O)C(O)C2OC2CC(C)(N)C(O)C(C)O2)Oc2ccc(cc2Cl)C1O (stereo not shown) [Compound 46]	0.14	0.22	0.75
CNC(CC(C)C)C(=O)NC1C(=O)NC(CC(N)=O)C(=O)NC2C(=O)NC3C(=O)NC(C(=O)NC(C(=O)O)c4cc(O)cc(O)c4-c4cc3ccc4O)C(OC3CC(C)(NCCCc4ccccc4)C(O)C(C)O3)c3ccc(c(Cl)c3)Oc3cc2cc(c3OC2OC(CO)C(O)C(O)C2OC2CC(C)(NCCCc3ccccc3)C(O)C(C)O2)Oc2ccc(cc2Cl)C1O (stereo not shown) [Compound 50]	0.6	1.02	> 5.0
CC(C)CC(C(=O)NC1C(=O)NC(CC(N)=O)C(=O)NC2C(=O)NC3C(=O)NC(C(=O)NC(C(=O)O)c4cc(O)cc(O)c4-c4cc3ccc4O)C(OC3CC(C)(N)C(O)C(C)O3)c3ccc(c(Cl)c3)Oc3cc2cc(c3OC2OC(CO)C(O)C(O)C2OC2CC(C)(N)C(O)C(C)O2)Oc2ccc(cc2Cl)C1O)N(C)Cc1ccccc1 (stereo not shown) [Compound 52]	0.5	0.75	–
CNC(CC(C)C)C(=O)NC1C(=O)NC(CC(N)=O)C(=O)NC2C(=O)NC3C(=O)NC(C(=O)NC(C(=O)O)c4cc(O)cc(O)c4-c4cc3ccc4O)C(OC3CC(C)(NCc4ccccc4)C(O)C(C)O3)c3ccc(c(Cl)c3)Oc3cc2cc(c3OC2OC(CO)C(O)C(O)C2OC2CC(C)(NCc3ccccc3)C(O)C(C)O2)Oc2ccc(cc2Cl)C1O (stereo not shown) [Compound 53]	0.2	0.18	1.25
CCN(CC)c1ccc(CNC2(C)CC(OC3c4ccc(c(Cl)c4)Oc4cc5cc(c4OC4OC(CO)C(O)C(O)C4OC4CC(C)(NCc6ccc(N(CC)CC)cc6)C(O)C(C)O4)Oc4ccc(cc4Cl)C(O)C(NC(=O)C(CC(C)C)NC)C(=O)NC(CC(N)=O)C(=O)NC5C(=O)NC4C(=O)NC3C(=O)NC(C(=O)O)c3cc(O)cc(O)c3-c3cc4ccc3O)OC(C)C2O)cc1 (stereo not shown) [Compound 57]	< 0.62	–	–
CNC(CC(C)C)C(=O)NC1C(=O)NC(CC(N)=O)C(=O)NC2C(=O)NC3C(=O)NC(C(=O)NC(C(=O)O)c4cc(O)cc(O)c4-c4cc3ccc4O)C(OC3CC(C)(NCc4ccc(Br)cc4)C(O)C(C)O3)c3ccc(c(Cl)c3)Oc3cc2cc(c3OC2OC(CO)C(O)C(O)C2OC2CC(C)(NCc3ccc(Br)cc3)C(O)C(C)O2)Oc2ccc(cc2Cl)C1O (stereo not shown) [Compound 59]	0.25	< 0.31	3.16
